Experimental data from patent EP0555116B1, “Compositions based on antiseptics and their applications” (HUTCHINSON, priority 1992, dated 1993).
Where two headings read alike, the source gives them in different places.

Experiments:
S. aureus ATCC 6538 = assay: Disinfection time test (Essai 2, Tables D-F), reaction at 22°, subcultures 72 h at 37°C; format: cell-based, Staphylococcus aureus
Experimental: (§1) Un autre essai a été réalisé à partir des solutions suivantes : • 100 ml d'une solution à 0,1 % de digluconate de chlorhexidine (pH 6) et • 100 ml d'une solution à 0,1 % de Bardac 22®.
(§2) Les tests ont été réalisés conformément au protocole décrit dans le Chapitre I/2.1 et 2.2 de Richtlinien für die Prüfung und Bewertung chemischer Desinfektionsverfahren der DGHM, Stand 1.1., 1981).
(§3) Les tests dont les résultats sont illustrés aux Tableaux D, E et F ont été réalisés à une température de réaction de 22° avec une incubation des sous-cultures 72 heures à 37°C avec comme substances inactivantes : Tween® 80 3 % + saponine 3 % + cystéine 0,1 % + histidine 0,1 %; ces Tableaux illustrent respectivement l'activité bactéricide et fongicide d'une solution aqueuse à 0,1 % de digluconate de chlorhexidine, d'une solution aqueuse à 0,1 % de Bardac 22® et d'un mélange à part égale des deux composés et montrent l'action des antiseptiques précités, en fonction du temps de contact, et font apparaître la même synergie d'action de l'association que ci-dessus, dans la mesure où l'association des deux composés permet de diminuer significativement leur concentration, pour l'obtention d'un même effet. TABLEAU D

spermatozoïdes = assay: Spermicidal action: vitality of spermatozoa (eosin-nigrosin, 100 spermatozoa examined); format: cell-based; settings: Homo sapiens, Sperm; for viability at 0.4 %: read-out: vitalité des spermatozoïdes, solution 0,4 %; for viability at 0.6 %: read-out: vitalité des spermatozoïdes, solution 0,6 %; for viability at 0.8 %: read-out: vitalité des spermatozoïdes, solution 0,8 %; for viability at 1 %: read-out: vitalité des spermatozoïdes, solution 1 %
Description: Les différents échantillons de sperme (une goutte de sperme/échantillon) sont obtenus à partir de volontaires sains.
Une goutte de sperme est traitée par l'éosinenigrosine. Un frottis est ensuite réalisé et cent spermatozoïdes sont examinés au microscope. Les cellules mortes sont colorées en rouge, soit totalement, soit partiellement. Les cellules vivantes sont incolores.
Les substances étudiées ont été, le Bardac® et le digluconate de chlorhexidine, testés seuls et en association conformément à l'invention. Les différentes étapes du protocole sont indiquées aux Tableaux IV à VI.
Le temps de contact maximum des différentes substances et du sperme a été limité à 3 minutes afin de garantir l'efficacité de la méthode dans les conditions d'utilisation. La concentration des solutions actives dans le sperme a été limitée à 10 % afin de diminuer les risques de toxicité des produits pour les muqueuses. TABLEAU IV

[1] = test system: Candida albicans ATCC 1031; assay: Disinfection time test (Essai 2, Tables D-F), reaction at 22°, subcultures 72 h at 37°C; format: cell-based
Experimental: as §1, §2, §3

[2] = 1 min, 1 Min, 5 % dans le sperme
[3] = 1 min, 1 Min, 10 % dans le sperme
[4] = 0.05 h, 3 Min, 5 % dans le sperme
[5] = 0.05 h, 3 Min, 10 % dans le sperme

## CCCCCCCCCC[N+](C)(C)CCCCCCCCCC [Bardac®, chlorure de didécyldiméthylammonium]
S. aureus ATCC 6538; Conc. 0,1 % (vol/vol), 1 min
  croissance: +
S. aureus ATCC 6538; Conc. 0,1 % (vol/vol), 3 min
  croissance: +
S. aureus ATCC 6538; Conc. 0,1 % (vol/vol), 5 min
  croissance: +
S. aureus ATCC 6538; Conc. 0,1 % (vol/vol), 15 min
  croissance: +
S. aureus ATCC 6538; Conc. 0,1 % (vol/vol), 30 min
  croissance: +
S. aureus ATCC 6538; Conc. 0,1 % (vol/vol), 60 min
  croissance: +
S. aureus ATCC 6538; Conc. 0,05 % (vol/vol), 1 min
  croissance: +
S. aureus ATCC 6538; Conc. 0,5 % (vol/vol), 1 min
  croissance: +
S. aureus ATCC 6538; Conc. 0,05 % (vol/vol), 3 min
  croissance: +
S. aureus ATCC 6538; Conc. 0,5 % (vol/vol), 3 min
  croissance: +
S. aureus ATCC 6538; Conc. 0,05 % (vol/vol), 5 min
  croissance: +
S. aureus ATCC 6538; Conc. 0,5 % (vol/vol), 5 min
  croissance: +
S. aureus ATCC 6538; Conc. 0,05 % (vol/vol), 15 min
  croissance: +
S. aureus ATCC 6538; Conc. 0,5 % (vol/vol), 15 min
  croissance: +
S. aureus ATCC 6538; Conc. 0,05 % (vol/vol), 30 min
  croissance: +
S. aureus ATCC 6538; Conc. 0,5 % (vol/vol), 30 min
  croissance: +
S. aureus ATCC 6538; Conc. 0,05 % (vol/vol), 60 min
  croissance: +
S. aureus ATCC 6538; Conc. 0,5 % (vol/vol), 60 min
  croissance: +
S. aureus ATCC 6538; Conc. 1 % (vol/vol), 1 min
  croissance: +
S. aureus ATCC 6538; Conc. 1 % (vol/vol), 3 min
  croissance: +
S. aureus ATCC 6538; Conc. 1 % (vol/vol), 5 min
  croissance: +
S. aureus ATCC 6538; Conc. 1 % (vol/vol), 15 min
  croissance: +
S. aureus ATCC 6538; Conc. 1 % (vol/vol), 30 min
  croissance: -
S. aureus ATCC 6538; Conc. 1 % (vol/vol), 60 min
  croissance: -
S. aureus ATCC 6538; Conc. 5 % (vol/vol), 1 min
  croissance: +
S. aureus ATCC 6538; Conc. 5 % (vol/vol), 3 min
  croissance: +
S. aureus ATCC 6538; Conc. 5 % (vol/vol), 5 min
  croissance: +
S. aureus ATCC 6538; Conc. 5 % (vol/vol), 15 min
  croissance: -
S. aureus ATCC 6538; Conc. 5 % (vol/vol), 30 min
  croissance: -
S. aureus ATCC 6538; Conc. 5 % (vol/vol), 60 min
  croissance: -
S. aureus ATCC 6538; Conc. 10 % (vol/vol), 1 min
  croissance: +
S. aureus ATCC 6538; Conc. 10 % (vol/vol), 3 min
  croissance: -
S. aureus ATCC 6538; Conc. 10 % (vol/vol), 5 min
  croissance: -
S. aureus ATCC 6538; Conc. 10 % (vol/vol), 15 min
  croissance: -
S. aureus ATCC 6538; Conc. 10 % (vol/vol), 30 min
  croissance: -
S. aureus ATCC 6538; Conc. 10 % (vol/vol), 60 min
  croissance: -
S. aureus ATCC 6538; Conc. 25 % (vol/vol), 1 min
  croissance: +
S. aureus ATCC 6538; Conc. 25 % (vol/vol), 3 min
  croissance: -
S. aureus ATCC 6538; Conc. 25 % (vol/vol), 5 min
  croissance: -
S. aureus ATCC 6538; Conc. 25 % (vol/vol), 15 min
  croissance: -
S. aureus ATCC 6538; Conc. 25 % (vol/vol), 30 min
  croissance: -
S. aureus ATCC 6538; Conc. 25 % (vol/vol), 60 min
  croissance: -
spermatozoïdes; [2]
  viability at 0.4 %: 10.7 ± 7.6%
  viability at 0.6 %: 10.5 ± 9.7%
  viability at 0.8 %: 9.7 ± 10.2%
  viability at 1 %: 0%
spermatozoïdes; [3]
  viability at 0.4 %: 5 ± 6.4%
  viability at 0.6 %: 9.2 ± 12.9%
  viability at 0.8 %: 1.8 ± 2.5%
  viability at 1 %: 0%
spermatozoïdes; [4]
  viability at 0.4 %: 0.8 ± 1.2%
  viability at 0.6 %: 2.2 ± 4.5%
  viability at 0.8 %: 0%
  viability at 1 %: 0%
spermatozoïdes; [5]
  viability at 0.4 %: 0.8 ± 1%
  viability at 0.6 %: 0.4 ± 0.9%
  viability at 0.8 %: 0%
  viability at 1 %: 0%
[1]; Conc. 0,1 % (vol/vol), 1 min
  croissance: +
[1]; Conc. 0,1 % (vol/vol), 3 min
  croissance: +
[1]; Conc. 0,1 % (vol/vol), 5 min
  croissance: +
[1]; Conc. 0,1 % (vol/vol), 15 min
  croissance: +
[1]; Conc. 0,1 % (vol/vol), 30 min
  croissance: +
[1]; Conc. 0,1 % (vol/vol), 60 min
  croissance: +
[1]; Conc. 0,05 % (vol/vol), 1 min
  croissance: +
[1]; Conc. 0,5 % (vol/vol), 1 min
  croissance: +
[1]; Conc. 0,05 % (vol/vol), 3 min
  croissance: +
[1]; Conc. 0,5 % (vol/vol), 3 min
  croissance: +
[1]; Conc. 0,05 % (vol/vol), 5 min
  croissance: +
[1]; Conc. 0,5 % (vol/vol), 5 min
  croissance: +
[1]; Conc. 0,05 % (vol/vol), 15 min
  croissance: +
[1]; Conc. 0,5 % (vol/vol), 15 min
  croissance: +
[1]; Conc. 0,05 % (vol/vol), 30 min
  croissance: +
[1]; Conc. 0,5 % (vol/vol), 30 min
  croissance: +
[1]; Conc. 0,05 % (vol/vol), 60 min
  croissance: +
[1]; Conc. 0,5 % (vol/vol), 60 min
  croissance: +
[1]; Conc. 1 % (vol/vol), 1 min
  croissance: +
[1]; Conc. 1 % (vol/vol), 3 min
  croissance: +
[1]; Conc. 1 % (vol/vol), 5 min
  croissance: +
[1]; Conc. 1 % (vol/vol), 15 min
  croissance: +
[1]; Conc. 1 % (vol/vol), 30 min
  croissance: -
[1]; Conc. 1 % (vol/vol), 60 min
  croissance: -
[1]; Conc. 5 % (vol/vol), 1 min
  croissance: +
[1]; Conc. 5 % (vol/vol), 3 min
  croissance: +
[1]; Conc. 5 % (vol/vol), 5 min
  croissance: -
[1]; Conc. 5 % (vol/vol), 15 min
  croissance: -
[1]; Conc. 5 % (vol/vol), 30 min
  croissance: -
[1]; Conc. 5 % (vol/vol), 60 min
  croissance: -
[1]; Conc. 10 % (vol/vol), 1 min
  croissance: -
[1]; Conc. 10 % (vol/vol), 3 min
  croissance: -
[1]; Conc. 10 % (vol/vol), 5 min
  croissance: -
[1]; Conc. 10 % (vol/vol), 15 min
  croissance: -
[1]; Conc. 10 % (vol/vol), 30 min
  croissance: -
[1]; Conc. 10 % (vol/vol), 60 min
  croissance: -
[1]; Conc. 25 % (vol/vol), 1 min
  croissance: -
[1]; Conc. 25 % (vol/vol), 3 min
  croissance: -
[1]; Conc. 25 % (vol/vol), 5 min
  croissance: -
[1]; Conc. 25 % (vol/vol), 15 min
  croissance: -
[1]; Conc. 25 % (vol/vol), 30 min
  croissance: -
[1]; Conc. 25 % (vol/vol), 60 min
  croissance: -
